This is an account of results in patent US7026314B2, “Therapeutic chromone compounds” (AstraZeneca AB, priority 2001, dated 2006).

SMILES strings stand for the structures.

T1 sequence (P28222 whole entry): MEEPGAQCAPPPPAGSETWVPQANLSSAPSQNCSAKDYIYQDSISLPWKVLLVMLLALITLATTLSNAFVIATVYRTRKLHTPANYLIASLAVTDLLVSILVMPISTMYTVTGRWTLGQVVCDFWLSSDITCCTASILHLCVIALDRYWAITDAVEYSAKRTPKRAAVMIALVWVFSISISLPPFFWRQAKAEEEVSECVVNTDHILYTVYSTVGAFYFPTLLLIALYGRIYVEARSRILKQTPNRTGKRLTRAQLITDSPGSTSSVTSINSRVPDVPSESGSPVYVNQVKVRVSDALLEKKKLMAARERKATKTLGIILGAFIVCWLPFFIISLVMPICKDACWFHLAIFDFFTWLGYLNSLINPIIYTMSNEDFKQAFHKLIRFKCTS

The first data set has as its target 5-HT1B and 5HT1D receptors.
Experiment: not given
The following applies: saturation studies, guinea pig cortex membranes; read-out: Kd value of [3H]GR125743; cited from earlier work.
The Kd is the equilibrium constant for the complex coming apart. In the case of `COc1ccc(NC(=O)c2ccc(-c3ccncc3)c(C)c2)cc1N1CCN(C)CC1` [[^3H]-GR125743], the Kd is 0.046 ± 0.004 nM.

The test system of another data set is guinea pigs. Nature of the data set: learned helplessness test in guinea pigs. It counts as in vivo. The following applies: guinea pig. The source says:
The utility of the compounds for example to treat depression may be shown via a learned helplessness test in guinea pigs, which is used extensively as correlative to antidepressant activity in humans. The learned helplessness test may be carried out as follows: Seventy male Hartley guinea pigs, each weighing about 350–425 gm are fed ad lib, and are housed under a 12-hour light/dark cycle. The procedure consists of two phases: The induction phase and the avoidance training phase. In the induction phase, subjects are placed into standard shuttle cages (20 L×16 W×21 centimeters H) which are fitted with a grid floor. Electrical stimulation (1.25 mA, 10 sec duration) is delivered to the floor of the cage every 90-sec during 1 hour daily sessions. Subjects have no opportunity to escape or to avoid shocks. Induction is conducted for 2 consecutive days.
In avoidance training, testing is also conducted in the shuttle cages, except that the subjects are not returned to the same chamber in which induction had occurred. Additionally, all cages are fitted with a partition with an arch in the center of the cage, through which animals can pass between the left and right halves of the cage. The procedure employed is a standard shuttle avoidance procedure in which a compound, conditioned stimulus (a 10-sec presentation of a tone and turning on of a lamp on the side of the cage that the guinea pig was occupying) serves to indicate presentation of electrical current to the floor of the cage. Shock is presented for a 5 sec period, 5 sec after initiation of the conditioned stimulus. Entry into the opposite side of the shuttle cage via the arched partition prior to shock onset results in the end of the trial (avoidance response). If shock is delivered, entry into the opposite side of the cage results in termination of the shock and CS (escape). Reversal of learned helplessness in the induction subjects correlates to antidepressant activity of the test compound.
Avoidance training, 45-min in duration, is conducted on 2 consecutive days, beginning 48 hr after the final induction session. Seventy subjects are assigned to 1 of 6 groups of 11–12 animals. The groups are as follows:
Groups 2–6 are given induction and avoidance training sessions. Injections are administered immediately following induction sessions and 1 hour prior to avoidance training sessions. A second injection is administered 7–8 hours following the first injection, for a total of 9 injections administered over 5 days. No injections are administered following the final avoidance training session.
Compounds of the present invention may be administered in a volume of 1 mL/kg bwt. Imipramine is dissolved in DI water. The compounds are dissolved in DI water, to which was added a few drops of lactic acid (pH 5.5). […]
In the case of `COc1cc(N2CCN(C)CC2)c2oc(C(=O)Nc3ccc(N4CCOCC4)cc3)cc(=O)c2c1` [Example 31, 6-Methoxy-8-(4-methyl-piperazin-1-yl)-4-oxo-4H-chromene-2-carboxylic acid (4-morpholin-4-yl-phenyl)-amide], the “activity in the learned helplessness assay for antidepressant/antianxiety activity” value is “demonstrate activity”.

As to `CCC(=O)N1CCN(c2ccc(NC(=O)c3cc(=O)c4cc(OC)cc(N5CCN(C)CC5)c4o3)cc2)CC1` [Example 44, 6-Methoxy-8-(4-methyl-piperazin-1-yl)-4-oxo-4H-chromene-2-carboxylic acid [4-(4-propionyl-piperazin-1-yl)-phenyl]-amide], the “activity in the learned helplessness assay for antidepressant/antianxiety activity” value was “demonstrate activity”.

In the case of `CCS(=O)(=O)N1CCN(c2ccc(NC(=O)c3cc(=O)c4cc(F)cc(N5CCN(C)CC5)c4o3)cc2)CC1` [Example 71, 6-Fluoro-8-(4-methyl-piperazin-1-yl)-4-oxo-4H-chromene-2-carboxylic acid [4-(4-ethanesulfonyl-piperazin-1-yl)-phenyl]-amide], the “activity in the learned helplessness assay for antidepressant/antianxiety activity” value is recorded as “demonstrate activity”.

For `CCC(=O)N1CCN(c2ccc(NC(=O)c3cc(=O)c4cc(F)cc(N5CCN(C)CC5)c4o3)cc2)CC1` [Example 72, 6-Fluoro-8-(4-methyl-piperazin-1-yl)-4-oxo-4H-chromene-2-carboxylic acid [4-(4-propionyl-piperazin-1-yl)-phenyl]-amide], the “activity in the learned helplessness assay for antidepressant/antianxiety activity” value is listed as “demonstrate activity”.

A further data set has as its target T1, 5-HT1B receptors (Homo sapiens, UniProt P28222).
T1 construct: expressed in transfected cells; host or cells: CHO (stably transfected), frozen membrane preparations
Kind of data set: 5-HT1b binding assay, competition with [3H]-GR125743 on CHO cell membranes. Conditions: CHO membranes expressing 5-HT1B and 5-HT1D receptors. From the text: Other assays that may be used to measure for example affinity of compounds of the present invention for 5HT1B and 5HT1D receptors are described in J. Med. Chem 41:1218–1235, 1228 (1998) and J. Med. Chem 42:4981–5001, (1999) and incorporated by reference herein. These assays may be used with some modifications: Frozen membrane preparations of a stably transfected chinese hamster ovary (CHO) cell line expressing 5-HT1B receptors and 5-HT1D receptors are thawed rapidly, briefly vortexed, and diluted in assay buffer (AB) containing 50 mM Tris-HCl, 4 mM MgCl2, 4mM CaCl2, 1 mM EDTA, and adjusted to pH 7.4 with NaOH. Final protein concentrations are −0.185 mg/ml for 5-HT1B, and 0.4 mg/ml for 5-HT1D membranes. Test compounds are evaluated in competition assays using [^3H]-GR125743 (Amersham). The ligand concentration in both assays was 0.27 nM. […] The 5-HT1B and 5-HT1D assays are performed simultaneously on one 96-well assay plate, one drug/compound per plate. Ten serial dilutions (1 uM to 4 pM, final concentration) of compound are prepared in DMSO from 10 mM stock solutions. Incubation mixtures are prepared in quadruplicate in 96-deep well assay plates (Matrix 1 ml). […] The plates are then counted on a Packard TopCount to determine CPM's per well. Ki values are determined for each test compound utilizing the graphic and analytical software package, GraphPad Prism. […]
In turn, `COc1ccc(NC(=O)c2ccc(-c3ccncc3)c(C)c2)cc1N1CCN(C)CC1` [[^3H]-GR125743] had a Kd of 0.15 to 0.25 nM.

System in the next data set: not given
Experiment: not given
Details: not given
Broadly, the melting point is the temperature of the solid-liquid transition. The molecule `CN1CCN(c2cccc3c2OC(C(=O)Nc2ccc(N4CCOCC4)cc2)CC3)CC1` (racemic) [Example 75, 8-(4-Methyl-piperazin-1-yl)-chroman-2-carboxylic acid(4-morpholin-4-yl-phenyl)-amide] registered a melting point of 215 to 216 °C.

In turn, `CN1CCN(c2cccc3c2OC(C(=O)Nc2ccc(N4CCOCC4)cc2)CC3=O)CC1` (racemic) [Example 78, racemic-8-(4-methyl-piperazin-1-yl)-4-oxo-chroman-2-carboxylicacid (4-morpholin-4-yl-phenyl)-amide] yielded a melting point of 215 to 216 °C.

On to `CN1CCN(c2cccc3c2OC(C(=O)Nc2ccc(N4CCOCC4)cc2)CC3=O)CC1` (single isomer, unassigned) [Example 79, 8-(4-Methyl-piperazin-1-yl)-4-oxo-chroman-2-carboxylic acid (4-morpholin-4-yl-phenyl)-amide(fasterrunning isomer)], for which the melting point is 216 °C (dec.).

As for `CN1CCN(c2cccc3c2OC(C(=O)Nc2ccc(N4CCOCC4)cc2)CC3=O)CC1` (single isomer, unassigned) [Example 80, 8-(4-Methyl-piperazin-1-yl)-4-oxo-chroman-2-carboxylic acid (4-morpholin-4-yl-phenyl)-amide(slowerrunning isomer).], the melting point is 215 °C (dec.).

`CN1CCN(c2cccc3c2OC(C(=O)Nc2ccc(N4CCOCC4)cc2)CC3)CC1` (single isomer, unassigned; (+)) [Example 76, (+)-8-(4-Methyl-piperazin-1-yl)-chroman-2-carboxylic acid (4-morpholin-4-yl-phenyl)-amide] returned a melting point of 206 to 207 °C.

For `CN1CCN(c2cccc3c2OC(C(=O)Nc2ccc(N4CCOCC4)cc2)CC3)CC1` (single isomer, unassigned; (-)) [Example 77, (−)-8-(4-Methyl-piperazin-1-yl)-chroman-2-carboxylic acid (4-morpholin-4-yl-phenyl)-amide], the melting point is 205.5 to 207 °C.

`CN1CCN(c2cccc3c(=O)cc(C(=O)Nc4ccc(N5CCOCC5)cc4)oc23)CC1` [Example 1, 8-(4-methyl-1-piperazinyl)-N-[4-(4-morpholinyl)phenyl]-4-oxo-4H-chromene-2-carboxamide]: the melting point is 217 to 218 °C (dec.).

As for `CN1CCN(c2cccc3c(=O)cc(-c4nc5ccc(N6CCOCC6)cc5o4)oc23)CC1` [Example 21, 8-(4-Methyl-piperazin-1-yl)-2-(6-morpholin-4-yl-benzooxazol-2-yl)-chromen-4-one], the melting point was in the range of 158.1 to 158.8 °C.

The molecule `CN1CCN(c2cccc3c(=O)cc(C(=O)Nc4ccc(N5CCOCC5)cc4O)oc23)CC1` [Example 22, 8-(4-Methyl-piperazin-1-yl)-4-oxo-4H-chromene-2-carboxylic acid (2-hydroxy-4-morpholin-4-yl-phenyl)-amide] registered a melting point of 248.4 to 249.6 °C.

`COc1cc(N2CCN(C)CC2)c2oc(C(=O)Nc3ccc(N4CCOCC4)cc3)cc(=O)c2c1` [Example 31, 6-Methoxy-8-(4-methyl-piperazin-1-yl)-4-oxo-4H-chromene-2-carboxylic acid (4-morpholin-4-yl-phenyl)-amide] gave a melting point of 234 to 236 °C.

As to `COc1cc(N2CCN(C)CC2)c2oc(C(=O)Nc3ccc(N4CCN(C(=O)CCO)CC4)cc3)cc(=O)c2c1` [Example 68, 6-Methoxy-8-(4-methyl-piperazin-1-yl)-4-oxo-4H-chromene-2-carboxylic acid {4-[4-(3-hydroxy-propanoyl)-piperazin-1-yl]-phenyl}-amide], the melting point is 195 to 197 °C.

The molecule `CCS(=O)(=O)N1CCN(c2ccc(NC(=O)c3cc(=O)c4cc(F)cc(N5CCN(C)CC5)c4o3)cc2)CC1` [Example 71, 6-Fluoro-8-(4-methyl-piperazin-1-yl)-4-oxo-4H-chromene-2-carboxylic acid [4-(4-ethanesulfonyl-piperazin-1-yl)-phenyl]-amide] returned a melting point of 233 to 234 °C.

For `CN1CCN(c2cc(F)cc3c(=O)cc(C(=O)Nc4ccc(N5CCN(C(=O)CCO)CC5)cc4)oc23)CC1` [Example 73, 6-Fluoro-8-(4-methyl-piperazin-1-yl)-4-oxo-4H-chromene-2-carboxylic acid {4-[4-(3-hydroxy-propanoyl)-piperazin-1-yl]-phenyl}-amide], the melting point was 195 to 199 °C.
